Results published in patent US20020018792A1, “Skin care anti-sebum compositions containing 3,4,4-trichlorocarbanilide” (Unilever Home & Personal Care USA, Division of Conopco, Inc., priority 2000, published 2002).
Entries after “also recorded” stand apart in the source; their conditions may differ. Read-outs that look alike come from different tables or passages of the source.

Assays:
[1] = system: human sebocytes; experiment: in vitro sebum suppression: 14C-acetate label remaining in sebocytes; assay type: cell-based; settings: for activity at 1 µM / activity at 10 µM: Homo sapiens, read-out: % of Control
Procedure: Secondary cultures of human sebocytes obtained from an adult […] were grown in 48-well tissue culture plates (Costar Corp.; Cambridge, Mass.) until two days post-confluence. Sebocyte growth medium consisted of Clonetics Keratinocyte Basal Medium (KBM) supplemented with 14 μg/ml bovine pituitary extract, 0.4 μg/ml hydrocortisone, 5 μg/ml insulin, […], 1.2×10^-10 M cholera toxin, 100 units/ml penicillin, and 100 μg/ml streptomycin. All cultures were incubated at 37° C. in the presence of 7.5% CO2. Medium was changed three times per week.
On the day of experimentation, the growth medium was removed and the sebocytes washed three times with sterile Dulbecco's Modified Eagle Medium (DMEM; phenol red free). Fresh DMEM was added to each sample (triplicates) with 1-5 microliter of test agent solubilized in ethanol. Controls consisted of addition of ethanol alone. Each plate was returned to the incubator for 20 hours.
This was followed by the addition of 14C-acetate buffer (5 mM final concentration, 56 mCi/mmol specific activity). Sebocytes were returned to the incubator for four hours afterwhich each culture was rinsed three times with phosphate buffered saline to remove unbound label. Radioactive label remaining in the sebocytes was harvested and counted using a Beckman scintillation counter.

[2] = system: human sebocytes; experiment: lactate dehydrogenase activity in sebocyte culture supernatant; assay type: cell-based; parameters: key: A340 at 5 min minus initial reading; higher = more LDH; settings: after 20 hours
Procedure: For the experiments summarized in Tables 1 and 2, lactate dehydrogenase amount was also measured. After 20 hours, 25 μl of supernatant was removed from each well and transferred to a 96-well plate. A vial of lactate dehydrogenase reagent (LD-L-20; Sigma Diagnostics; Cat 228-20) was reconstituted with 20 ml of distilled water. 200 μl of this reconstituted reagent was added to each well and the plate immediately analyzed at 340 nm. After exactly five minutes at room temperature, the plate was re-analyzed at 340 nm. The amount of lactate dehydrogenase activity was calculated by subtracting the initial reading from the five minute reading (this value indicated below in column headed “LDH”). The higher the number, the more lactate dehydrogenase is present. Increased lactate dehydrogenase numbers are associated with cellular crisis. Experimental samples were compared to the value obtained with the ethanol treated control.

With `O=S1(=O)OC(c2ccc(O)cc2)(c2ccc(O)cc2)c2ccccc21` [Phenol Red] the activity at 1 µM ([1]; Table 2, 1 μM) was 91.4%, the activity at 10 µM ([1]; Table 2, 10 μM) was 70.9% and the LDH ([2]; Table 2, 1 μM, control 0.154) was 0.169. The LDH ([2]; Table 2, 10 μM, control 0.154) was 0.237.
`O=C(Nc1ccc(Cl)cc1)Nc1ccc(Cl)c(Cl)c1` [TCC, 3,4,4-trichlorocarbanilide] was tested, and the “% of Control” value ([1]; Table 1, 1 μM, 20 hours then 4 hours 14C-acetate) was 70.4%, the “% of Control” value ([1]; Table 1, 10 μM, 20 hours then 4 hours 14C-acetate) was 1.0% and the “% of Control” value ([1]; Table 1, 100 μM, 20 hours then 4 hours 14C-acetate) was 0.8%. The “% of Control” value ([1]; Table 1, 1 mM, 20 hours then 4 hours 14C-acetate) was 0.8%, the “sebum suppressive effectiveness compared with Phenol Red” value ([1]; Table 2) was “more effective than Phenol Red” and the “% of Control” value ([1]; Table 2, 100 nM) was 80.4%. The “% of Control” value ([1]; Table 2, 500 nM) was 54.6%, the “% of Control” value ([1]; Table 2, 1 μM) was 20.9% and the “sebum suppressive activity in the presence of retinol (retinoid)” value ([1]; Table 3) was “improved sebum suppressive activity; also recorded: significantly enhanced”. The “% of Control” value ([1]; Table 3, 250 nM) was 97.6%, the “% of Control” value ([1]; Table 3, 500 nM) was 75.6% and the “% of Control” value ([1]; Table 3, 1 μM) was 81.4%. For the same molecule, the “% of Control” value ([1]; Table 3, 2.5 μM) was 4.3%, the sebum suppressive activity ([1]; summary of Tables 1-3) was “had sebum suppressive activity” and the LDH ([2]; Table 1, 1 μM, 340 nm five minute minus initial reading, control 0.094) was 0.039. For the same molecule, the LDH ([2]; Table 1, 10 μM, 340 nm five minute minus initial reading, control 0.094) was 0.059, the LDH ([2]; Table 1, 100 μM, 340 nm five minute minus initial reading, control 0.094) was 0.114 and the LDH ([2]; Table 1, 1 mM, 340 nm five minute minus initial reading, control 0.094) was 0.190. For the same molecule, the LDH ([2]; Table 2, 100 nM, control 0.154) was 0.137, the LDH ([2]; Table 2, 500 nM, control 0.154) was 0.136 and the LDH ([2]; Table 2, 1 μM, control 0.154) was 0.183.
Molecule `CC1=C(/C=C/C(C)=C/C=C/C(C)=C/CO)C(C)(C)CCC1` [Retinol] has an activity at 1 µM ([1]; Table 3, 1 μM) of 104% and an activity at 10 µM ([1]; Table 3, 10 μM) of 102%.
